Several values for one entry are separate records, joined by “and”; a condition that tells them apart may be missing. Equal entries are not always repeated.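 Tested at 5 concentrations; 48 h exposure; 96-well plates; endpoints linearly interpolated, else capped at highest concentration. Abbreviation: GI50, concentration required for 50% inhibition of growth. TGI: total growth inhibition.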
Tests used:
Experiment in all cases: growth of human tumour cells (NCI), 48 h
DU-145 prostate = test system: DU-145 prostate
HCT-15 colon = test system: HCT-15 colon
HL-60(TB) leukemia = test system: HL-60(TB) leukemia
HS 578T breast = test system: HS 578T breast
KM12 colon = test system: KM12 colon
MOLT-4 leukemia = test system: MOLT-4 leukemia
OVCAR-4 ovarian = test system: OVCAR-4 ovarian
SF-268 CNS = test system: SF-268 CNS
SK-MEL-2 melanoma = test system: SK-MEL-2 melanoma
SK-MEL-5 melanoma = test system: SK-MEL-5 melanoma

Row | SMILES | GI50 (DU-145 prostate) | TGI (DU-145 prostate) | GI50 (HCT-15 colon) | TGI (HCT-15 colon) | GI50 (HL-60(TB) leukemia) [µM] | TGI (HL-60(TB) leukemia) [µM] | GI50 (HS 578T breast) [µM] | TGI (HS 578T breast) [µM] | GI50 (KM12 colon) | TGI (KM12 colon) | GI50 (MOLT-4 leukemia) [µM] | TGI (MOLT-4 leukemia) [µM] | GI50 (OVCAR-4 ovarian) | TGI (OVCAR-4 ovarian) | GI50 (SF-268 CNS) | TGI (SF-268 CNS) | GI50 (SK-MEL-2 melanoma) | TGI (SK-MEL-2 melanoma) | GI50 (SK-MEL-5 melanoma) | TGI (SK-MEL-5 melanoma)
1 | COc1ccc(C(=O)Cn2c(C(=O)c3ccc(OC)cc3)nc3ccccc32)cc1 | 4.31 µM | > 100 µM | 1.21 µM | > 100 µM | 0.436 | 10.8 | 2.14 | > 28.5 | 1.16 µM | > 100 µM | 0.861 | > 100 | 5.8 µM | > 100 µM | 6.25 µM | > 100 µM | 12.6 µM | > 100 µM | 2.36 µM | > 27.1 µM
2 | COc1cc(/C=C(/C)[N+](=O)[O-])ccc1O | 2.01 µM and 1.59 µM | 4.11 µM and 3.26 µM | 2.34 µM and 2 µM | 7.4 µM and 6.21 µM | 2.75 | 7.01 | 4.67 | > 28.4 | 2.97 µM and 1.93 µM | 7.52 µM and 3.75 µM | 3.3 | 9.14 | 2.62 µM and 1.69 µM | 7.6 µM and 3.18 µM | 2.73 µM and 1.92 µM | 6.94 µM and 4.51 µM | 2.15 µM and 1.7 µM | 4.3 µM and 3.49 µM | 1.91 µM and 1.9 µM | 3.92 µM and 3.57 µM
3 | N#CC1=C(N)Oc2cc3c(cc2C1c1cccs1)OCO3 (centres undefined) | 0.824 µM | > 100 µM | 0.486 µM | > 100 µM | 0.247 | 0.899 | 0.411 |  | 0.325 µM | > 59.7 µM | 0.504 | > 100 | 4.5 µM | > 100 µM | 0.654 µM | > 85.6 µM | 0.252 µM | 0.783 µM | 0.34 µM | > 43.5 µM
4 | Cc1ccc(Nc2nc(NCCO)c3ccccc3n2)cc1C | 10.3 µM | 22 µM | 3.26 µM | 13.3 µM | 11 | 31 | 12.4 | 33.8 | 8.06 µM | 20.5 µM | 2.86 | 11 | 3.14 µM | 15.6 µM | 9.27 µM | 22.2 µM | 11.3 µM | 24 µM | 2.78 µM | 10.5 µM
5 | Oc1ccc2ccccc2c1C=NCCCN=Cc1c(O)ccc2ccccc12 | 35.3 µM | > 100 µM | 5.13 µM | 28.5 µM | 24.1 | > 100 | 8.05 | 36.7 | 15.1 µM | 36.2 µM | 10.3 | 56.9 | 35.9 µM | > 100 µM | 16.3 µM | > 100 µM | 12.6 µM | 37.2 µM | 4.61 µM | 16 µM
6 | CCn1c(=O)c(-c2ccn[nH]2)cc2c(C)nc(N)nc21 | 2.34 µM | > 100 µM | 2.08 µM | > 100 µM | 2.88 | > 100 | 0.35 | 2.38 | 3.3 µM | > 100 µM | 0.846 | 51 | 1.25 µM | 44 µM | 1.53 µM | > 100 µM | 2.25 µM | 9.58 µM | 1.38 µM | 6.3 µM
7 | Cc1ccc(C)c(NC(=O)C(=O)C(c2cnc3ccc([N+](=O)[O-])cc3n2)[N+](=O)[O-])c1 (centres undefined) |  | > 100 µM |  | > 100 µM |  | 45.2 |  | > 100 |  | > 100 µM |  | > 100 |  | 38.2 µM |  | > 100 µM |  | > 100 µM |  | > 100 µM
8 | CN(C)CCCCN1CCc2c(n(C)c3ccccc23)C1=O |  | > 100 µM |  | 54.9 µM and 58.3 µM |  | > 100 |  | > 89.4 |  | > 92.7 µM |  | > 87.6 |  | > 100 µM |  | > 76.3 µM and 57.6 µM |  | 50.2 µM and 35.9 µM |  | 42.8 µM and 31.9 µM
9 | Nc1c(C(=O)Nc2ccccc2)sc2nc3c(cc12)CCCCCC3 | 0.445 µM | 12.3 µM | 0.314 µM | 14 µM | 0.299 | 4.55 | 0.529 | 9.64 | 0.398 µM | 17.6 µM | 0.422 | > 50.9 | 1.11 µM | 15.7 µM | 1.14 µM | 20.1 µM | 0.857 µM | 8.89 µM | 0.393 µM | 9.07 µM
10 | Cc1ccc(NC(c2ccccc2)c2ccc3cccnc3c2O)cc1 (centres undefined) |  | 23.4 µM |  | 14.4 µM |  | 11.7 |  | 61.3 |  | 19.1 µM |  | 17.3 |  | 16.4 µM |  | 13.6 µM |  | 21 µM |  | 15.4 µM
11 | O=C1/C(=C/c2cccc([N+](=O)[O-])c2)COc2ccc(O)c(O)c21 | 1.9 µM | 4.39 µM | 0.569 µM | 2.76 µM | 2.29 | 7.14 | 2.04 | 7.47 | 1.68 µM | 3.4 µM | 2.12 | 12.1 | 1.46 µM | 2.8 µM | 1.79 µM | 4.3 µM | 2 µM | 4.35 µM | 1.55 µM | 2.95 µM
12 | COc1cc2oc(=O)cc(C)c2cc1[N+](=O)[O-] |  | > 100 µM |  | 44.4 µM |  | 44 |  | > 90.3 |  | > 57.3 µM |  | 60.9 |  | 84.1 µM |  | 45 µM |  | 58 µM |  | > 65.1 µM
13 | C[Si](C)(C)C#CCO[Si](C)(C)C |  | > 100 µM |  | > 100 µM |  | > 61 |  | > 100 |  | > 89.3 µM |  | 58.4 |  | > 100 µM |  | > 89.3 µM |  | > 100 µM |  | > 100 µM
14 | Cc1cc2c(c3c1c1ccccc1n3C)C(=O)C=CC2=O |  | > 100 µM |  | 36.5 µM |  | 16 |  | 80.5 |  | 57.9 µM |  | 12 |  | 30.6 µM |  | 70.5 µM |  | 51.9 µM |  | > 90.1 µM
